Assay results: the NIST ThermoML archive (doi:10.1016/j.jct.2018.12.021)

Test: mn = molality of the nth substance listed, in mol/kg
Conditions: for electrical conductivity / mass density: 100 kPa, Liquid; for electrical conductivity: Direct current cell with electrodes; for mass density: Vibrating tube method; for surface tension liquid-gas: Ring tensiometer

CCCCCCCCCCCC[n+]1cscc1C.[Br-] [N-dodecyl-4-methylthiazolium bromide] + O
Conditions	electrical conductivity [S/m]	mass density [kg/m3]	surface tension liquid-gas [mN/m]
293.15 K, m1 = 0.0015	0.0135	998.25	–
293.15 K, m1 = 0.00206	0.0179	998.29	–
293.15 K, m1 = 0.0025	0.0221	998.31	–
293.15 K, m1 = 0.00402	0.0346	998.4	–
293.15 K, m1 = 0.005	0.0428	998.45	–
293.15 K, m1 = 0.00561	–	998.48	–
293.15 K, m1 = 0.00708	0.0591	998.56	–
293.15 K, m1 = 0.00803	–	998.6	–
293.15 K, m1 = 0.00906	0.0738	998.66	–
293.15 K, m1 = 0.01216	0.0813	998.81	–
293.15 K, m1 = 0.01507	0.0893	998.96	–
293.15 K, m1 = 0.01759	–	999.07	–
293.15 K, m1 = 0.02033	0.106	999.21	–
293.15 K, m1 = 0.02365	–	999.38	–
298.15 K, m1 = 0.0015	0.015	997.07	–
298.15 K, m1 = 0.00206	0.02	997.1	–
298.15 K, m1 = 0.0025	0.0246	997.12	–
298.15 K, m1 = 0.00402	0.0387	997.2	–
298.15 K, m1 = 0.005	0.0479	997.25	–
298.15 K, m1 = 0.00561	–	997.29	–
298.15 K, m1 = 0.00708	0.0662	997.36	–
298.15 K, m1 = 0.00803	–	997.42	–
298.15 K, m1 = 0.00906	0.0822	997.47	–
298.15 K, m1 = 0.01216	0.0921	997.62	–
298.15 K, m1 = 0.01507	0.101	997.75	–
298.15 K, m1 = 0.01759	–	997.86	–
298.15 K, m1 = 0.02033	0.12	998	–
298.15 K, m1 = 0.02365	–	998.16	–
303.15 K, m1 = 0.0015	0.0166	995.66	47.78
303.15 K, m1 = 0.00206	0.0222	995.68	43.39
303.15 K, m1 = 0.0025	0.0272	995.7	41.79
303.15 K, m1 = 0.00402	0.0428	995.77	39.49
303.15 K, m1 = 0.005	0.0529	995.82	35.96
303.15 K, m1 = 0.00561	–	995.86	–
303.15 K, m1 = 0.00708	0.0733	995.93	30.49
303.15 K, m1 = 0.00803	–	995.98	–
303.15 K, m1 = 0.00906	0.0917	996.03	30.89
303.15 K, m1 = 0.01216	0.103	996.17	31.36
303.15 K, m1 = 0.01507	0.114	996.3	30.86
303.15 K, m1 = 0.01759	–	996.4	–
303.15 K, m1 = 0.02033	0.137	996.53	30.91
303.15 K, m1 = 0.02365	–	996.65	–
308.15 K, m1 = 0.0015	0.0184	994.04	–
308.15 K, m1 = 0.00206	0.0244	994.06	–
308.15 K, m1 = 0.0025	0.03	994.08	–
308.15 K, m1 = 0.00402	0.047	994.13	–
308.15 K, m1 = 0.005	0.0581	994.18	–
308.15 K, m1 = 0.00561	–	994.21	–
308.15 K, m1 = 0.00708	0.0803	994.28	–
308.15 K, m1 = 0.00803	–	994.33	–
308.15 K, m1 = 0.00906	0.1	994.37	–
308.15 K, m1 = 0.01216	0.114	994.49	–
308.15 K, m1 = 0.01507	0.127	994.61	–
308.15 K, m1 = 0.01759	–	994.69	–
308.15 K, m1 = 0.02033	0.15	994.82	–
308.15 K, m1 = 0.02365	–	994.89	–
313.15 K, m1 = 0.0015	0.02	992.22	–
313.15 K, m1 = 0.00206	0.0267	992.23	–
313.15 K, m1 = 0.0025	0.0329	992.24	–
313.15 K, m1 = 0.00402	0.0515	992.28	–
313.15 K, m1 = 0.005	0.0634	992.31	–
313.15 K, m1 = 0.00561	–	992.34	–
313.15 K, m1 = 0.00708	0.0877	992.39	–
313.15 K, m1 = 0.00803	–	992.43	–
313.15 K, m1 = 0.00906	0.11	992.47	–
313.15 K, m1 = 0.01216	0.125	992.61	–
313.15 K, m1 = 0.01507	0.138	992.72	–
313.15 K, m1 = 0.01759	–	992.81	–
313.15 K, m1 = 0.02033	0.162	992.9	–
313.15 K, m1 = 0.02365	–	993	–
